Assay results: article PMC10120551, “Novel Glu-based pyrazolo[3,4-d]pyrimidine analogues: design, synthesis and biological evaluation as DHFR and TS dual inhibitors” (Journal of Enzyme Inhibition and Medicinal Chemistry, 2023)

Key:
M14 = details: M14, Melanoma; five-dose 0.01–100 µM
[1] = test system: full panel of 59 cancer cells; test: NCI one-dose screen (SRB), full panel; format: cell-based, human; details: Homo sapiens; mean over full panel of 59 cell lines; 10 µM single dose; read-out: MGI% (mean growth inhibition percentage)
Protocol: The growth percentage (G%) and cell viability of the herein target compounds 6a–l, 7a,b, and 9a–c have been screened towards a full panel of 59 cancer cells at NCI’s Developmental Therapeutics Program (NCI-DTP, MD, USA)[21]. The submitted analogues were initially examined for preliminary in vitro anticancer activity using sulforhodamine B (SRB) assay at 10 µM as a single dose to evaluate cell growth and viability according to the procedure of Drug Evaluation Branch[22]^,[23].
Different types of tumours – colon, NSCLC, leukaemia, CNS, renal, breast, ovarian, melanoma, and prostate cancers – were investigated as a full panel of 59 cell lines, and the attained results are cited in Figures S1–S17 (see Supplementary Material) where the value recorded is the growth relative to that of both the negative control and zero-time number of cells in which both growth inhibition (GI%; 0–100%) and lethality (L%; 0–100%) percentages can be identified. The growth inhibition means percentages (MGI%) for the examined target analogues towards the different treated 59 cancer cells were presented in Figure 2.
The designed analogues were submitted to NCI-Chemotherapeutic Agents Repository (MD, USA) for screening on a panel of 59 cancer cell lines. All compounds were initially examined at 10 µM concentration (Single-Dose Screen), and then the most efficient analogue 6i was screened further at 0.01–100 µM (Five-Dose Screen). The screening procedures were performed according to NCI-Drug Evaluation Branch protocol using SRB protein assay, as described previously[21]^,[66]. The experimental procedures were detailed in the Supporting Information.

CAKI-1 [2] = details: CAKI-1, Renal cancer; five-dose 0.01–100 µM
A498 = details: A498, Renal cancer; five-dose 0.01–100 µM
SK-MEL-5 = details: SK-MEL-5, Melanoma; five-dose 0.01–100 µM
BT-549 = test: cells; details: Homo sapiens
786-0 = details: 786-0, Renal cancer; five-dose 0.01–100 µM
K-562 [3] = test: cells; details: Homo sapiens
recombinant hDHFR = recombinant hDHFR (Homo sapiens, UniProt P00374); test: DHFR inhibitory assay
Sequence of recombinant hDHFR (P00374 whole entry): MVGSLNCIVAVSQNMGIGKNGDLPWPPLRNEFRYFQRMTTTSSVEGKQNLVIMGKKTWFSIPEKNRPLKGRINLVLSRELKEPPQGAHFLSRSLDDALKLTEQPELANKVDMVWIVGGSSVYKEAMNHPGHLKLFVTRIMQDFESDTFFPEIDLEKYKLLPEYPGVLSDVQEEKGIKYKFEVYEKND
Protocol: DHFR inhibition assay kit (BioVision, K247–100) supplied with recombinant hDHFR was utilised in this assay. The assay was performed as instructed in assay kit[32]. Briefly, in a 96-well clear plate, serial dilutions of the test compound (2 μL) were loaded. […] An assay buffer (100 µl) was used as a Background Control. Then, 40 μL of diluted NADPH in assay buffer (40-fold dilution) was added and mixed well. At 25 °C in the dark, the plate was incubated for 15 min. […] Instantaneously, the absorbance was read at 340 nm for 10–20 min at 25 °C in kinetic mode by Robonik ELISA plate reader. Finally, the activity and relative inhibition percentages were measured using the equations indicated in the assay kit[33–35].

LOX IMVI = test: cells; details: Homo sapiens
HOP-92 = test: cells; details: Homo sapiens
SR = test: cells; details: Homo sapiens
NCI-H23 = test: cells; details: Homo sapiens
HCC-2998 = test: cells; details: Homo sapiens
MDA-MB-435 [4] = test: cells; details: Homo sapiens
MDA-MB-435 [5] = details: MDA-MB-435, Melanoma; five-dose 0.01–100 µM
NCI-H460 = test: cells; details: Homo sapiens
CAKI-1 [6] = test: cells; details: Homo sapiens
U251 = details: U251, CNS cancer; five-dose 0.01–100 µM
DU-145 = details: DU-145, Prostate cancer; five-dose 0.01–100 µM
SK-MEL-2 = test: cells; details: Homo sapiens
SNB-75 = test: cells; details: Homo sapiens
K-562 [7] = details: K-562, Leukaemia; five-dose 0.01–100 µM
MDA-MB-468 = details: MDA-MB-468, Breast cancer; five-dose 0.01–100 µM
OVCAR-5 = test: cells; details: Homo sapiens
HL-60(TB) = test: cells; details: Homo sapiens

CCOC(=O)CC[C@H](NC(=O)c1ccc(NC(=O)Cn2cnc3c(c(C)nn3-c3ccc(Br)cc3)c2=O)cc1)C(=O)OCC [Compound 6i]
TGI (M14): >100 µM | inhibition at 10 µM [1]: 62% | TGI (CAKI-1 [2]): 22.1 µM | TGI (A498): 48.1 µM | TGI (SK-MEL-5): 43.1 µM | GI50 (BT-549; BT-549): 4.54 µM | CC50 (BT-549; BT-549, read-out: LC50): > 100 µM | TGI (786-0): >100 µM | GI50 (K-562 [3]; K562): > 100 µM | CC50 (K-562 [3]; K562, read-out: LC50): > 100 µM | IC50 (recombinant hDHFR): 2.41 ± 0.13 µM | GI50 (LOX IMVI): 5.3 µM | CC50 (LOX IMVI; read-out: LC50): 58.4 µM | GI50 (HOP-92; HOP-92): 6.01 µM | CC50 (HOP-92; HOP-92, read-out: LC50): 66.2 µM | GI50 (SR): 71 µM | CC50 (SR; read-out: LC50): > 100 µM | GI50 (NCI-H23; NCI-H23): 7.64 µM | CC50 (NCI-H23; NCI-H23, read-out: LC50): 82.1 µM | GI50 (HCC-2998; HCC 2998): 35.1 µM | CC50 (HCC-2998; HCC 2998, read-out: LC50): > 100 µM | GI50 (MDA-MB-435 [4]; MDA-MB-435): 12.2 µM | CC50 (MDA-MB-435 [4]; MDA-MB-435, read-out: LC50): 96.1 µM | TGI (MDA-MB-435 [5]): 34.3 µM | GI50 (NCI-H460; NCI-H460): 13.7 µM | CC50 (NCI-H460; NCI-H460, read-out: LC50): 86.9 µM | GI50 (CAKI-1 [6]; CAKI-1): 10.4 µM | CC50 (CAKI-1 [6]; CAKI-1, read-out: LC50): 47 µM | TGI (U251): >100 µM | TGI (DU-145): 28.8 µM | GI50 (SK-MEL-2; SK-MEL-2): 27.6 µM | CC50 (SK-MEL-2; SK-MEL-2, read-out: LC50): > 100 µM | GI50 (SNB-75; SNB-75): 14.9 µM | CC50 (SNB-75; SNB-75, read-out: LC50): > 100 µM | TGI (K-562 [7]): >100 µM | TGI (MDA-MB-468): 51.3 µM | GI50 (OVCAR-5; OVCAR-5): 20.2 µM | CC50 (OVCAR-5; OVCAR-5, read-out: LC50): > 100 µM | GI50 (HL-60(TB); HL-60): > 100 µM | CC50 (HL-60(TB); HL-60, read-out: LC50): > 100 µM
